The numbers were not newly measured in patent US20120101165A1, “Urea Compositions With Cooling Effect” (priority 2007, published 2012), which cites them from elsewhere.

Like-named read-outs stand apart in the source and are kept apart here.

Experiment in data set [1]: not given
The source holds these as a separate data set.

The conditions of data set [2]: endothermic.
The conditions of data set [3]: 20% urea solution.

As for `NC(N)=O` [urea, diaminomethanal], the critical relative humidity entry by setting is: (at 20° C.) “about 81%”; (at 30° C.) “about 73%”. For the same compound, the solubility in water in data set [1] (at 20° C.) is given as 108 g/100 mL; in data set [1] (at 100° C.), 733 g/100 mL. Besides, the “heat of solution in water” value in data set [2] is given as “about −57.8 cal/g”. For the same compound, in data set [3] (after 11 months at room temperature), the pH after storage is on record as 8.8. In addition, the “initial pH” value in data set [3] (initial) was “about 7.4”.
